# Results reported in patent publication US10829501B2 (BRISTOL-MYERS SQUIBB COMPANY, priority 2016, dated 2020).
# Where a name gives a salt, the structure may show the parent alone.
# Molecular target: ROCK2 (Homo sapiens, UniProt O75116)
# Assay: ROCK2 kinase inhibition assay (LABCHIP 3000 Reader, FITC peptide substrate);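 further: rho kinase reaction read by separating phosphorylated from unphosphorylated peptide on chip, with inhibition of kinase activity computed per concentration across a dose-response series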
# Conditions: not given
# ROCK2, sequence (O75116 whole entry, species assumed): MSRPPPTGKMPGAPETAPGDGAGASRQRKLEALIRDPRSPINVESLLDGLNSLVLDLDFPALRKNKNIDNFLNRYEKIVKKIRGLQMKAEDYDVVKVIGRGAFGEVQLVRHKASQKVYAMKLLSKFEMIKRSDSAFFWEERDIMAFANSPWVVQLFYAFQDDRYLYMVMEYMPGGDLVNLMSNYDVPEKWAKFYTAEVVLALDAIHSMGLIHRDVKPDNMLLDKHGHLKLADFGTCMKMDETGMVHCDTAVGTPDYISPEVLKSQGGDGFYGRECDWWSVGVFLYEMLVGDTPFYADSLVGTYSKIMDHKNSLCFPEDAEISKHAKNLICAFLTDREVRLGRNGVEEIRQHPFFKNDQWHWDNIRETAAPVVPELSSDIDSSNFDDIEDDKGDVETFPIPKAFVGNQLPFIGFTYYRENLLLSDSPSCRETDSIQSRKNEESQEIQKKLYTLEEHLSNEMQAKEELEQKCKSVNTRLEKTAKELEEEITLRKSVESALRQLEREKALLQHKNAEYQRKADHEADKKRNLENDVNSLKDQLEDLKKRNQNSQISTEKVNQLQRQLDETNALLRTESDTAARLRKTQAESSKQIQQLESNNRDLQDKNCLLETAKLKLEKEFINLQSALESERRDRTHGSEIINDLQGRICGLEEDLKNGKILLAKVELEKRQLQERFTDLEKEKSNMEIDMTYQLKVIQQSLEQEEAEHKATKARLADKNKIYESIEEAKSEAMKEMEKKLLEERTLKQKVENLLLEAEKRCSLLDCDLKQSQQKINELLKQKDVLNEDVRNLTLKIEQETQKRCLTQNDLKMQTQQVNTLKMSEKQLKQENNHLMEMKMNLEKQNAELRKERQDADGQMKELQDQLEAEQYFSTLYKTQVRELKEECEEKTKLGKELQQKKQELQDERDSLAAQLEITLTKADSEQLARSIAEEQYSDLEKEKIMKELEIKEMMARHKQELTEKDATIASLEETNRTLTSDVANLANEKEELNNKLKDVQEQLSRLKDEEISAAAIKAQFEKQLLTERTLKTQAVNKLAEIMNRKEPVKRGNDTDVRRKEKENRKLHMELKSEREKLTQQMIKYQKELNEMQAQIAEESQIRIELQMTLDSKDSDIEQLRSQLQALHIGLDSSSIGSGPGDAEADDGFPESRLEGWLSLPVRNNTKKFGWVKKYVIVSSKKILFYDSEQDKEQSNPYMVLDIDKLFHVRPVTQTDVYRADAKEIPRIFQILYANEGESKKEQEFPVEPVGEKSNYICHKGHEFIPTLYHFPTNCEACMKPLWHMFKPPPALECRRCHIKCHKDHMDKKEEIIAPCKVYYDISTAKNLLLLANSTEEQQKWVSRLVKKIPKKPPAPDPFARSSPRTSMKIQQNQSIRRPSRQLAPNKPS
row,Compound,IC50 [nM]
1,"CN1CCN(CCCc2ccc(C(N)=O)c(OC3CC4(CC(NC(=O)c5cnn6cc(OCC(C)(C)O)ccc56)C4)C3)c2)CC1 (stereo not drawn) [Example 266, N-(6-(2-carbamoyl-5-(3-(4-methylpiperazin-1-yl)propyl)phenoxy)spiro[3.3]heptan-2-yl)-6-(2-hydroxy-2-methylpropoxy)pyrazolo[1,5-a]pyridine-3-carboxamide]",50 to 250
2,"CC(C)(O)Cn1nc(C(=O)N[C@H]2CC3(C2)C[C@H](Oc2ncccc2C(N)=O)C3)c2ccc(OC(F)(F)F)cc21 (stereo partly drawn) [Example 98, N-((aR)-6-((3-carbamoylpyridin-2-yl)oxy)spiro[3.3]heptan-2-yl)-1-(2-hydroxy-2-methylpropyl)-6-(trifluoromethoxy)-1H-indazole-3-carboxamide, trifluoroacetate]",5 to 50
3,"NC(=O)c1cccnc1O[C@H]1CC2(C[C@H](NC(=O)c3cnn4cc(OCCn5ccnc5)ccc34)C2)C1 (stereo partly drawn) [Example 120, 6-(2-(1H-imidazol-1-yl)ethoxy)-N-((aR)-6-((3-carbamoylpyridin-2-yl)oxy)spiro[3.3]heptan-2-yl)pyrazolo[1,5-a]pyridine-3-carboxamdie, trifluoroacetate]",5 to 50
4,"CC(C)(O)COc1ccc2c(C(=O)NC3CC4(C3)CC(Oc3cc(-c5ccc(F)c(-c6nnn[nH]6)c5)ccc3C(N)=O)C4)cnn2c1 (stereo not drawn) [Example 299, N-(6-((4-carbamoyl-4′-fluoro-3′-(1H-tetrazol-5-yl)-[1,1′-biphenyl]-3-yl)oxy)spiro[3.3]heptan-2-yl)-6-(2-hydroxy-2-methylpropoxy)pyrazolo[1,5-a]pyridine-3-carboxamide]",5 to 50
5,"CC(C)(O)COc1ccc2c(C(=O)NC3CC4(C3)CC(Oc3cc(-c5ccc(C(N)=O)c(F)c5)ccc3C(N)=O)C4)cnn2c1 (stereo not drawn) [Example 280, 3-fluoro-3′-((6-(6-(2-hydroxy-2-methylpropoxy)pyrazolo[1,5-a]pyridine-3-carboxamido)spiro[3.3]heptan-2-yl)oxy)-[1,1′-biphenyl]-4,4′-dicarboxamide]",5 to 50
6,"NC(=O)c1cccnc1O[C@H]1CC2(C[C@H](NC(=O)c3cnn4c(C5CC5)c(OC5COC5)ccc34)C2)C1 (stereo partly drawn) [Example 343, N-((aR)-6-((3-carbamoylpyridin-2-yl)oxy)spiro[3.3]heptan-2-yl)-7-cyclopropyl-6-(oxetan-3-yloxy)pyrazolo[1,5-a]pyridine-3-carboxamide]",5 to 50
7,"CC(C)(O)COc1ccc2c(C(=O)N[C@H]3CC4(C3)C[C@H](Oc3ncccc3C(N)=O)C4)nn(C(C)(C)C(N)=O)c2c1 (stereo partly drawn) [Example 412, 1-(1-amino-2-methyl-1-oxopropan-2-yl)-N-((aR)-6-((3-carbamoylpyridin-2-yl)oxy)spiro[3.3]heptan-2-yl)-6-(2-hydroxy-2-methylpropoxy)-1H-indazole-3-carboxamide, TFA]",5 to 50
8,"CC(C)(O)COc1ccc2c(C(=O)NC3CC4(C3)CC(Oc3cc(-c5cnn(CC(C)(C)O)c5)ccc3C(N)=O)C4)cnn2c1 (stereo not drawn) [Example 279, N-(6-(2-carbamoyl-5-(1-(2-hydroxy-2-methylpropyl)-1H-pyrazol-4-yl)phenoxy)spiro[3.3]heptan-2-yl)-6-(2-hydroxy-2-methylpropoxy)pyrazolo[1,5-a]pyridine-3-carboxamide]",5 to 50
9,"CC(C)(O)COc1ccc2c(C(=O)NC3CC4(C3)CC(Oc3cc(C5CC5)ccc3C(N)=O)C4)cnn2c1 (stereo not drawn) [Example 273, N-(6-(2-carbamoyl-5-cyclopropylphenoxy)spiro[3.3]heptan-2-yl)-6-(2-hydroxy-2-methylpropoxy)pyrazolo[1,5-a]pyridine-3-carboxamide]",5 to 50
10,"CC(C)(O)COc1ccc2c(C(=O)NC3CC4(C3)CC(Oc3cc(CCCCN)ccc3C(N)=O)C4)cnn2c1 (stereo not drawn) [Example 305, N-(6-(5-(4-aminobutyl)-2-carbamoylphenoxy)spiro[3.3]heptan-2-yl)-6-(2-hydroxy-2-methylpropoxy)pyrazolo[1,5-a]pyridine-3-carboxamide]",< 5
11,"CC(C)(O)COc1ccc2c(C(=O)NC3CC4(C3)CC(Oc3cc(-c5cc(C(=O)O)cc(C(=O)O)c5)ccc3C(N)=O)C4)cnn2c1 (stereo not drawn) [Example 255, 4′-carbamoyl-3′-((6-(6-(2-hydroxy-2-methylpropoxy)pyrazolo[1,5-a]pyridine-3-carboxamido)spiro[3.3]heptan-2-yl)oxy)-[1,1′-biphenyl]-3,5-dicarboxylic acid]",5 to 50
12,"NC(=O)c1cccnc1O[C@H]1CC2(C[C@H](NC(=O)c3cnn4cc(OCCC(F)(F)F)ccc34)C2)C1 (stereo partly drawn) [Example 82, N-((aR)-6-((3-carbamoylpyridin-2-yl)oxy)spiro[3.3]heptan-2-yl)-6-(3,3,3-trifluoropropoxy) pyrazolo[1,5-a]pyridine-3-carboxamide, trifluoroacetate]",< 5
13,"[H][C@]1(Oc2ncccc2C(N)=O)C[C@@]2(C[C@H](NC(=O)c3nn(C(F)F)c4cc(N5CCOCC5)ccc34)C2)C1 (stereo partly drawn) [Example 372, N-((aR)-6-((3-carbamoylpyridin-2-yl)oxy)spiro[3.3]heptan-2-yl)-1-(difluoromethyl)-6-morpholino-1H-indazole-3-carboxamide]",< 5
14,"NC(=O)c1ccccc1O[C@H]1CC2(C[C@H](NC(=O)c3cnc4cc(N5CCOCC5)ccn34)C2)C1 (stereo partly drawn) [Example 29, N-[(aR)-6-(2-carbamoylphenoxy)spiro [3.3]heptan-2-yl]-7-(morpholin-4-yl)imidazo[1,2-a]pyridine-3-carboxamide]",5 to 50
15,"NC(=O)c1ccccc1OC1CC2(CC(NC(=O)OCc3ccccc3)C2)C1 [Example 14, benzyl ((aR)-6-(2-carbamoylphenoxy)spiro[3.3]heptan-2-yl)carbamate]",250 to 2500

# More lines, now with the values ahead:
row,IC50 [nM],Compound
1,50 to 250,"NC(=O)c1cccnc1O[C@H]1CC2(C[C@H](NC(=O)c3ncoc3-c3ccccc3)C2)C1 (stereo partly drawn) [Example 165, N-((aR)-6-((3-carbamoylpyridin-2-yl)oxy)spiro[3.3]heptan-2-yl)-5-phenyloxazole-4-carboxamide]"
2,5 to 50,"N#Cc1ccc(-c2ncc(C(=O)NC3CC4(C3)CC(Oc3ncccc3C(N)=O)C4)s2)cc1 [Example 418, N-((aR)-6-((3-carbamoylpyridin-2-yl)oxy)spiro[3.3]heptan-2-yl)-2-(4-cyanophenyl)thiazole-5-carboxamide, TFA]"
3,5 to 50,"Cn1cc(-c2ccn3c(C(=O)N[C@H]4CC5(C4)C[C@H](Oc4ncccc4C(N)=O)C5)cnc3c2)cn1 (stereo partly drawn) [Example 337, N-((aR)-6-((3-carbamoylpyridin-2-yl)oxy)spiro[3.3]heptan-2-yl)-7-(1-methyl-1H-pyrazol-4-yl)imidazo[1,2-a]pyridine-3-carboxamide]"
4,50 to 250,"Cn1ncc2cc(C(=O)N[C@H]3CC4(C3)C[C@H](Oc3ncccc3C(N)=O)C4)ccc21 (stereo partly drawn) [Example 68, N-((aR)-6-((3-carbamoylpyridin-2-yl)oxy)spiro[3.3]heptan-2-yl)-1-methyl-1H-indazole-5-carboxamide, trifluoroacetae]"
5,250 to 2500,"NC(=O)c1cccnc1O[C@H]1CC2(C[C@H](NC(=O)c3nc(-c4nc5ccccc5s4)cs3)C2)C1 (stereo partly drawn) [Example 144, 4-(benzo[d]thiazol-2-yl)-N-((aR)-6-((3-carbamoylpyridin-2-yl)oxy)spiro [3.3]heptan-2-yl)thiazole-2-carboxamide, trifluoroacetate]"
6,50 to 250,"CNC(=O)c1ccc(-c2ncc(C(=O)NC3CC4(C3)CC(Oc3ncccc3C(N)=O)C4)s2)cc1F [Example 419, N-((aR)-6-((3-carbamoylpyridin-2-yl)oxy)spiro[3.3]heptan-2-yl)-2-(3-fluoro-4-(methylcarbamoyl)phenyl)thiazole-5-carboxamide, TFA]"
7,5 to 50,"Cc1ccn2c(C(=O)N[C@H]3CC4(C3)C[C@H](Oc3ncccc3C(N)=O)C4)cnc2c1 (stereo partly drawn) [Example 335, N-((aR)-6-((3-carbamoylpyridin-2-yl)oxy)spiro[3.3]heptan-2-yl)-7-methylimidazo[1,2-a]pyridine-3-carboxamide]"
8,50 to 250,"NC(=O)c1cccnc1O[C@H]1CC2(C[C@H](NC(=O)c3cccc(-n4cccn4)c3)C2)C1 (stereo partly drawn) [Example 134, 2-(((aR)-6-(3-(1H-pyrazol-1-yl)benzamido)spiro[3.3]heptan-2-yl)oxy) nicotinamide, trifluoroacetate]"
9,50 to 250,[H][C@]1(Oc2ncccc2C(N)=O)C[C@@]2(C[C@H](NC(=O)c3cccc(-c4cnn(C)c4)c3)C2)C1 (stereo partly drawn) [Example 54]

# Same assay, conditions: read-out: ROCK2 Activity (ROCK2 IC50); 5 μM ATP, 1.5 μM peptide substrate, pH 7.5
row,Compound,IC50 [nM]
1,"Cn1cncc1-c1cc(C(=O)NC2CC3(C2)CC(Oc2ncccc2C(N)=O)C3)cc(C(F)(F)F)c1 [Example 449, 2-(((aR)-6-(3-(1-methyl-1H-imidazol-5-yl)-5-(trifluoromethyl)benzamido)spiro[3.3]heptan-2-yl)oxy)nicotinamide]",5 to 50
2,"N-((aR)-6-((3- carbamoylpyridin-2- yl)oxy)spiro [3.3]heptan-2-yl)- 6- methoxypyrazolo[1,5- a]pyridine-3- carboxamide, trifluoroacetate [Example 100]",5 to 50

# Next, values leading:
row,IC50 [nM],Compound
1,5 to 50,"CC(=O)N(C)Cc1ccc2c(C(=O)NC3CC4(C3)CC(Oc3ncccc3C(N)=O)C4)nc(C(F)F)n2c1 [Example 453, N-((aR)-6-((3-carbamoylpyridin-2-yl)oxy)spiro[3.3]heptan-2-yl)-3-(difluoromethyl)-6-((N-methylacetamido)methyl)imidazo[1,5-a]pyridine-1-carboxamide]"
2,5 to 50,"NC(=O)c1cccnc1OC1CC2(CC(NC(=O)c3nc(Br)n4ccccc34)C2)C1 [Example 421, 3-bromo-N-((aR)-6-((3-carbamoylpyridin-2-yl)oxy)spiro[3.3]heptan-2-yl)imidazo[1,5-a]pyridine-1-carboxamide]"
3,5 to 50,"Cn1ncc2c(C(=O)NC3CC4(C3)CC(Oc3ncccc3C(N)=O)C4)cc(Br)cc21 [Example 425, 6-bromo-N-((aR)-6-((3-carbamoylpyridin-2-yl)oxy)spiro[3.3]heptan-2-yl)-1-methyl-1H-indazole-4-carboxamide]"
4,50 to 250,"NC(=O)c1cccnc1OC1CC2(CC(NC(=O)c3nc(N)nc4ccccc34)C2)C1 [Example 461, 2-Amino-N-((aR)-6-((3-carbamoylpyridin-2-yl)oxy)spiro[3.3]heptan-2-yl)quinazoline-4-carboxamide, 2 TFA]"
